From patent publication US20240173312A1, “Pharmaceutical Composition Comprising a Benzoheterocyclic Compound and Androgen Receptor Pathway Modulator and Application Thereof” (KANGPU BIOPHARMACEUTICALS, LTD., priority 2015, published 2024)
Where two headings read alike, the source gives them in different places.

Tests used:
[1] = system: Vcap cells (androgen receptor (+) prostate cancer cells)
Method: (§1) In vitro test of the inhibition effect of the compound in combination with androgen receptor pathway modulators and the like on the prostate cancer cell proliferation.
(§2) The tested compounds were used alone or in combination with other androgen receptor pathway modulators respectively. […] After that, 100 μl of CellTiter-Glo® cell viability assay reagent (Promega, catalogue number G7570) was added to each well and mixed well on a vibrator for 10 minutes to induce cell lysis. The 96-well plate was placed at room temperature for 10 minutes, so as to stabilize its luminescence signal. A white bottom membrane was pasted on the bottom of the plate and the plate was tested using EnSpire.

[2] = system: Vcap cells (androgen receptor (+) prostate cancer cells); assay: CTG cell proliferation assay (CellTiter-Glo)
Method: as §1, §2

[3] = Homo sapiens, VCaP, 120 h, read-out: Survival rate of Vcap cells, Table 3, tested compound alone
[4] = Homo sapiens, VCaP, 120 h, read-out: Survival rate of Vcap cells, Table 4, tested compound alone
[5] = Homo sapiens, VCaP, 120 h, read-out: Survival rate of Vcap cells, Table 5, tested compound alone
[6] = Homo sapiens, VCaP, 120 h, read-out: Survival rate of Vcap cells, Table 9, tested compound alone
[7] = Homo sapiens, VCaP, 120 h, read-out: Survival rate of Vcap cells, Table 10, tested compound alone
[8] = Homo sapiens, VCaP, 120 h, read-out: Vcap cell proliferation inhibition rate

For `Nc1cccc2c1CN(C1CCC(=O)NC1=O)C2=O` (stereo not shown) [B001], the inhibition [1] was 21.4%, the viability at 0.1 µM [2, 3] was 92% and the viability at 1 µM ([2]; Homo sapiens, VCaP, 120 h, read-out: Survival rate of Vcap cells, Table 3, tested compound alone, 1.0 μM) was 82.8%. The viability at 10 µM [2, 3] was 81.9%, the viability at 0.1 µM [2, 4] was 92% and the viability at 1 µM ([2]; Homo sapiens, VCaP, 120 h, read-out: Survival rate of Vcap cells, Table 4, tested compound alone, 1 μM) was 82.8%. For the same compound, the viability at 10 µM [2, 4] was 81.9%, the viability at 0.1 µM [2, 5] was 87.7% and the viability at 1 µM ([2]; Homo sapiens, VCaP, 120 h, read-out: Survival rate of Vcap cells, Table 5, tested compound alone, 1.0 μM) was 75.3%. The viability at 10 µM [2, 5] was 72.3%, the viability at 0.1 µM [2, 6] was 83.9% and the viability at 1 µM ([2]; Homo sapiens, VCaP, 120 h, read-out: Survival rate of Vcap cells, Table 9, tested compound alone, 1.0 μM) was 74.8%. It also gave a viability at 10 µM [2, 6] of 69.1%, a viability at 0.1 µM [2, 7] of 83.9% and a viability at 1 µM ([2]; Homo sapiens, VCaP, 120 h, read-out: Survival rate of Vcap cells, Table 10, tested compound alone, 1.0 μM) of 74.7%. It also gave a viability at 10 µM [2, 7] of 69.1%, an inhibition at 0.41 µM [2, 8] of 18.7% and an inhibition at 1.23 µM [2, 8] of 20.7%. For the same compound, the inhibition at 11.11 µM [2, 8] was 20.9%, the inhibition at 33.33 µM [2, 8] was 22% and the inhibition at 100 µM [2, 8] was 19.6%. The “Survival rate of Vcap cells” value ([2]; Table 3, tested compound 0.1 μM in combination with 1 μM ARN-509) was 42.0%, the “Survival rate of Vcap cells” value ([2]; Table 3, tested compound 0.1 μM in combination with 1 μM Enzalutamide) was 40.3% and the “Survival rate of Vcap cells” value ([2]; Table 3, tested compound 1.0 μM in combination with 1 μM ARN-509) was 34.7%. For the same compound, the “Survival rate of Vcap cells” value ([2]; Table 3, tested compound 1.0 μM in combination with 1 μM Enzalutamide) was 35.6%, the “Survival rate of Vcap cells” value ([2]; Table 3, tested compound 10 μM in combination with 1 μM ARN-509) was 33.5% and the “Survival rate of Vcap cells” value ([2]; Table 3, tested compound 10 μM in combination with 1 μM Enzalutamide) was 33.7%. The “Survival rate of Vcap cells” value ([2]; Table 3, tested compound alone, 1.0 μM) was 82.8%, the “Survival rate of Vcap cells” value ([2]; Table 4, tested compound 0.1 μM in combination with 1 μM Abiraterone acetate) was 78.5% and the “Survival rate of Vcap cells” value ([2]; Table 4, tested compound 0.1 μM in combination with 1 μM Galeterone) was 51.1%. The “Survival rate of Vcap cells” value ([2]; Table 4, tested compound 1 μM in combination with 1 μM Abiraterone acetate) was 68.0%, the “Survival rate of Vcap cells” value ([2]; Table 4, tested compound 1 μM in combination with 1 μM Galeterone) was 43.3% and the “Survival rate of Vcap cells” value ([2]; Table 4, tested compound 10 μM in combination with 1 μM Abiraterone acetate) was 62.9%. For the same compound, the “Survival rate of Vcap cells” value ([2]; Table 4, tested compound 10 μM in combination with 1 μM Galeterone) was 42.8%, the “Survival rate of Vcap cells” value ([2]; Table 4, tested compound alone, 1 μM) was 82.8% and the “Survival rate of Vcap cells” value ([2]; Table 5, tested compound 0.1 μM in combination with 1 μM ODM-201) was 52.7%. The “Survival rate of Vcap cells” value ([2]; Table 5, tested compound 1.0 μM in combination with 1 μM ODM-201) was 41.4%, the “Survival rate of Vcap cells” value ([2]; Table 5, tested compound 10 μM in combination with 1 μM ODM-201) was 37.5% and the “Survival rate of Vcap cells” value ([2]; Table 5, tested compound alone, 1.0 μM) was 75.3%. The “Survival rate of Vcap cells” value ([2]; Table 9, tested compound 0.1 μM in combination with 1 μM ARN-509) was 50.9%, the “Survival rate of Vcap cells” value ([2]; Table 9, tested compound 0.1 μM in combination with 1 μM Enzalutamide) was 52.1% and the “Survival rate of Vcap cells” value ([2]; Table 9, tested compound 1.0 μM in combination with 1 μM ARN-509) was 42.6%. For the same compound, the “Survival rate of Vcap cells” value ([2]; Table 9, tested compound 1.0 μM in combination with 1 μM Enzalutamide) was 42.3%, the “Survival rate of Vcap cells” value ([2]; Table 9, tested compound 10 μM in combination with 1 μM ARN-509) was 40.9% and the “Survival rate of Vcap cells” value ([2]; Table 9, tested compound 10 μM in combination with 1 μM Enzalutamide) was 38.4%. The Cell survival rate ([2]; notes of Table 9: 1.0 μM tested compound in combination with 1.0 μM Enzalutamide) was 42.6%.
